Measurements reported in US10111435B2, “Herbicidal compositions containing N-(1,3,4-oxadiazol-2-yl)-aryl carboxylic acid amides” (BAYER CROPSCIENCE AKTIENGESELLSCHAFT, priority 2013, dated 2018).

Key:
Type in all cases: in vivo
[1] = test system: Echinochloa crus-galli (ECHCG); assay: greenhouse post-emergence herbicidal efficacy against ECHCG
Method: (§1) All trials whose results are shown were conducted in a greenhouse by the methodology specified below. The effect of the inventive herbicidal compositions was examined on the following harmful plants 14 and 21 days after application:
(§2) Echinochloa crus-galli (ECHCG), Eleusine indica (ELEIN), Setaria viridis (SETVI), Amaranthus retroflexus (AMARE), Chenopodium album (CHEAL), Kochia scoparia (KCHSC), Solanum nigrum (SOLNI), Avena fatua (AVEFA), Bromus sterilis (BROST), Lolium multiflorum (LOLMU), Phalaris minor (PHAMI), Poa annua (POAAN), Galium aparine (GALAP), Matricaria inodora (MATIN) and Polygonum convolvulus (POLCO).
(§3) The harmful plant seeds were sown in pots (diameter 8 cm) with sandy loam soil and germinated under optimal conditions. The inventive herbicidal compositions or the active ingredients alone were applied post-emergence to the planted pots with a spray volume of 300 L/ha. The trial was conducted in a greenhouse under optimum growth conditions. The herbicidal effects were assessed visually by comparison of untreated and treated plants. The percentages mean: 0%=no effects, 100%=the plants die off completely). The percentages are used to calculate interactions between individual treatments and combination treatments according to S. R. Colby, Weeds 15, pages 20 to 22 (1967).
(§4) The abbreviations mean: • a.i.=active ingredient • E^C=expected value according to Colby (E^C=A+B−A×B/100) • Diff: =difference (%) of measured value from expected value (%) (measured value minus expected value)
(§5) Assessment: • measured value E is greater than E^C:->synergism (+ diff.) • measured value E equals E^C:->additive effect • measured value E is smaller than E^C:->antagonism(− diff.)

[2] = test system: Eleusine indica (ELEIN); assay: greenhouse post-emergence herbicidal efficacy against ELEIN; conditions: for pest or weed control at 0.5 g/ha: 0.5 g of a.i./ha; for pest or weed control at 2 g/ha: 2 g of a.i./ha
Method: as §1, §2, §3, §4, §5

[3] = test system: Setaria viridis (SETVI); assay: greenhouse post-emergence herbicidal efficacy against SETVI; conditions: 21 days after application
Method: as §1, §2, §3, §4, §5

[4] = test system: Chenopodium album (CHEAL); assay: greenhouse post-emergence herbicidal efficacy against CHEAL; conditions: 21 days after application
Method: as §1, §2, §3, §4, §5

[5] = test system: Kochia scoparia (KCHSC); assay: greenhouse post-emergence herbicidal efficacy against KCHSC
Method: as §1, §2, §3, §4, §5

[6] = test system: Avena fatua (AVEFA); assay: greenhouse post-emergence herbicidal efficacy against AVEFA
Method: as §1, §2
as §3, with “completely).” for “completely). The percentages are used to calculate interactions between individual treatments and combination treatments according to S. R. Colby, Weeds 15, pages 20 to 22 (1967).”
as §4, §5

[7] = test system: Bromus sterilis (BROST); assay: greenhouse post-emergence herbicidal efficacy against BROST
Method: as §1, §2
as §3, with “completely).” for “completely). The percentages are used to calculate interactions between individual treatments and combination treatments according to S. R. Colby, Weeds 15, pages 20 to 22 (1967).”
as §4, §5

[8] = test system: Lolium multiflorum (LOLMU); assay: greenhouse post-emergence herbicidal efficacy against LOLMU
Method: as §1, §2
as §3, with “completely).” for “completely). The percentages are used to calculate interactions between individual treatments and combination treatments according to S. R. Colby, Weeds 15, pages 20 to 22 (1967).”
as §4, §5

[9] = test system: Phalaris minor (PHAMI); assay: greenhouse post-emergence herbicidal efficacy against PHAMI
Method: as §1, §2
as §3, with “completely).” for “completely). The percentages are used to calculate interactions between individual treatments and combination treatments according to S. R. Colby, Weeds 15, pages 20 to 22 (1967).”
as §4, §5

[10] = test system: Poa annua (POAAN); assay: greenhouse post-emergence herbicidal efficacy against POAAN
Method: as §1, §2
as §3, with “completely).” for “completely). The percentages are used to calculate interactions between individual treatments and combination treatments according to S. R. Colby, Weeds 15, pages 20 to 22 (1967).”
as §4, §5

[11] = test system: Galium aparine (GALAP); assay: greenhouse post-emergence herbicidal efficacy against GALAP
Method: as §1, §2
as §3, with “completely).” for “completely). The percentages are used to calculate interactions between individual treatments and combination treatments according to S. R. Colby, Weeds 15, pages 20 to 22 (1967).”
as §4, §5

[12] = test system: Matricaria inodora (MATIN); assay: greenhouse post-emergence herbicidal efficacy against MATIN
Method: as §1, §2
as §3, with “completely).” for “completely). The percentages are used to calculate interactions between individual treatments and combination treatments according to S. R. Colby, Weeds 15, pages 20 to 22 (1967).”
as §4, §5

[13] = test system: Polygonum convolvulus (POLCO); assay: greenhouse post-emergence herbicidal efficacy against POLCO
Method: as §1, §2
as §3, with “completely).” for “completely). The percentages are used to calculate interactions between individual treatments and combination treatments according to S. R. Colby, Weeds 15, pages 20 to 22 (1967).”
as §4, §5

[14] = 21 days after application, 0.5 g of a.i./ha
[15] = 21 days after application, 2 g of a.i./ha
[16] = Eleusine indica, post-emergence, 336 h, 14 days after application
[17] = Eleusine indica, post-emergence, 504 h, 21 days after application
[18] = 14 days after application, 5 g of a.i./ha
[19] = 14 days after application, 20 g of a.i./ha
[20] = 21 days after application, g of a.i./ha: A1-3 5, pinoxaden 20
[21] = 21 days after application, g of a.i./ha: A1-3 20, pinoxaden 5
[22] = 21 days after application, g of a.i./ha: A1-3 20, pinoxaden 20
[23] = 14 days after application, 50 g of a.i./ha
[24] = 21 days after application, 1 g of a.i./ha
[25] = 14 days after application, g of a.i./ha: A1-57 12.5, aclonifen 200
[26] = 21 days after application, g of a.i./ha: A1-57 12.5, aclonifen 800
[27] = 14 days after application, g of a.i./ha: A1-57 12.5, aclonifen 800
[28] = 14 days after application, g of a.i./ha: A1-57 50, aclonifen 800
[29] = 21 days after application, g of a.i./ha: A1-57 50, aclonifen 800
[30] = 14 days after application, g of a.i./ha: A1-57 50, aclonifen 200
[31] = 21 days after application, g of a.i./ha: A1-57 12.5, aclonifen 200

## CS(=O)(=O)c1ccc(C(=O)C2C(=O)CCCC2=O)c(Cl)c1COCC(F)(F)F [tembotrione]
[1]; 14 days after application, 0.5 g of a.i./ha
  Efficacy: 10%
[1]; [14]
  Efficacy: 10%
[1]; [15]
  Efficacy: 60%
[2]; [16]
  pest or weed control at 0.5 g/ha: 30%
  pest or weed control at 2 g/ha: 40%
[2]; [17]
  pest or weed control at 0.5 g/ha: 0%
  pest or weed control at 2 g/ha: 10%
[3]; 0.5 g of a.i./ha
  Efficacy: 0%
[3]; 2 g of a.i./ha
  Efficacy: 10%
[4]; 2 g of a.i./ha
  Efficacy: 30%
[5]; 14 days after application, 2 g of a.i./ha
  Efficacy: 20%
[5]; [14]
  Efficacy: 0%
[5]; [15]
  Efficacy: 10%

## CCc1cc(C)cc(CC)c1-c1c(OC(=O)C(C)(C)C)n2n(c1=O)CCOCC2 [pinoxaden]
[6]; [18]
  Efficacy: 0%
[6]; [19]
  Efficacy: 20%
[7]; [18]
  Efficacy: 0%
[7]; [19]
  Efficacy: 10%
[8]; [19]
  Efficacy: 85%
[8]; [20]
  Efficacy: 80%
[8]; [21]
  Efficacy: 30%
[9]; [18]
  Efficacy: 10%
[9]; [19]
  Efficacy: 50%
[9]; [21]
  Efficacy: 10%
[9]; [22]
  Efficacy: 20%
[10]; [18]
  Efficacy: 0%
[10]; [19]
  Efficacy: 0%
[10]; [20]
  Efficacy: 0%
[10]; [22]
  Efficacy: 0%
[11]; [19]
  Efficacy: 0%
[11]; [20]
  Efficacy: 0%
[11]; [21]
  Efficacy: 0%
[11]; [22]
  Efficacy: 0%
[12]; [19]
  Efficacy: 0%
[13]; [18]
  Efficacy: 0%
[13]; [19]
  Efficacy: 0%
[13]; [21]
  Efficacy: 0%
[13]; [22]
  Efficacy: 0%

## O=C(O)CNCP(=O)(O)O [glyphosate]
[2]; Eleusine indica, post-emergence, 504 h, read-out: Efficacy
  pest or weed control at 50 g/ha: 0%
[4]; 50 g of a.i./ha
  Efficacy: 30%
[5]; [23]
  Efficacy: 30%
[5]; 21 days after application, 50 g of a.i./ha
  Efficacy: 10%
[5]; 21 days after application, 200 g of a.i./ha
  Efficacy: 30%

## Cc1nnc(NC(=O)c2ccc(S(C)(=O)=O)c(OCCF)c2Cl)o1 [A1-57]
[2]; [24]
  Efficacy: 10%
[4]; 1 g of a.i./ha
  Efficacy: 30%
[5]; 14 days after application, 1 g of a.i./ha
  Efficacy: 40%
[5]; [24]
  Efficacy: 20%
[6]; 14 days after application, 12.5 g of a.i./ha
  Efficacy: 0%
[6]; [23]
  Efficacy: 0%
[6]; [25]
  Efficacy: 0%
[6]; [26]
  Efficacy: 0%
[7]; [25]
  Efficacy: 0%
[7]; [27]
  Efficacy: 0%
[7]; [28]
  Efficacy: 40%
[7]; [26]
  Efficacy: 0%
[7]; [29]
  Efficacy: 15%
[8]; [27]
  Efficacy: 0%
[8]; [28]
  Efficacy: 35%
[9]; [25]
  Efficacy: 50%
[9]; [27]
  Efficacy: 50%
[9]; [30]
  Efficacy: 70%
[9]; [31]
  Efficacy: 20%
[9]; [26]
  Efficacy: 20%
[10]; [25]
  Efficacy: 15%
[10]; [27]
  Efficacy: 15%
[10]; [30]
  Efficacy: 50%
[10]; [28]
  Efficacy: 50%
[10]; [26]
  Efficacy: 10%
[10]; 21 days after application, g of a.i./ha: A1-57 50, aclonifen 200
  Efficacy: 35%
[10]; [29]
  Efficacy: 35%
[11]; [25]
  Efficacy: 30%
[11]; [30]
  Efficacy: 60%
[11]; [29]
  Efficacy: 40%
[12]; [25]
  Efficacy: 60%
[12]; [27]
  Efficacy: 60%
[12]; [28]
  Efficacy: 85%
[12]; [29]
  Efficacy: 80%
[13]; [25]
  Efficacy: 65%
[13]; [27]
  Efficacy: 65%
[13]; [31]
  Efficacy: 50%
